Measurements: patent US20240199555A1, “APPLICATIONS OF BIASED LIGANDS OF THE SEROTONIN 5-HT7 RECEPTOR FOR THE TREATMENT OF PAIN, MULTIPLE SCLEROSIS AND THE CONTROL OF THERMOREGULATION” (Centre National de la Recherche Scientifique, priority 2021, published 2024)
Like-named read-outs stand apart in the source and are kept apart here.

Columns and labels:
[1] = target: human 5-HT7a receptor (Homo sapiens (Human), UniProt P34969); experiment: Radioligand binding competition, filtration binding assay, 5-HT7a; conditions: affinity on 5-HT7 receptor, table of new compounds
Chain of human 5-HT7a receptor (P34969 other isoform, or with tags, fused parts or gaps): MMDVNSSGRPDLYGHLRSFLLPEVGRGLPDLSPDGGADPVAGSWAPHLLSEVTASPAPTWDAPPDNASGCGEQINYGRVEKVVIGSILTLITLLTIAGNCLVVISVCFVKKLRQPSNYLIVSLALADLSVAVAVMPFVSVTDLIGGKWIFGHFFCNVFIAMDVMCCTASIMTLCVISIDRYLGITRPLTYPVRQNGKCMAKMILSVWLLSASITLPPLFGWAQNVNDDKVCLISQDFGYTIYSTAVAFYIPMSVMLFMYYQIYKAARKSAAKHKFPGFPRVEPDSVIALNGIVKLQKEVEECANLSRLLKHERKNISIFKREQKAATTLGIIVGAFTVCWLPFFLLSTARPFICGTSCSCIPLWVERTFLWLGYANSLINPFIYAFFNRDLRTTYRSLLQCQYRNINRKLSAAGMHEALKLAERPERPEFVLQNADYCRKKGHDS
Protocol: (§1) FIG. 14: Testing of 8 molecules for radioligand binding competition activity on recombinant human 5-HT1A, 5-HT2A, 5-HT2Cedited, 5-HT6, 5-HT7 and D2(long) receptors using filtration binding assays.
(§2) Radioligand Binding experiments were conducted with Epics Therapeutics membrane preparations. Receptor accession numbers, cellular background and reference compounds are shown in this table.
Reference values thus obtained for the test were compared to historical values obtained from the same receptor and used to validate the experimental session. For replicate determinations, the maximum variability tolerated in the test was of +/−20% around the average of the replicates.
(§3) Dose-response data from test compounds were analyzed with XLfit (IDBS) software using nonlinear regression applied to a sigmoidal dose-response model and the following equation: • XL Fit fit Model 203: 4 Parameter Logistic Model • A: Bottom • B: TOP • C: LogEC50 • D: Hill

[2] = target: human 5-HT1A receptor (Homo sapiens (Human), UniProt P08908); experiment: Radioligand binding competition, 5-HT1A; conditions: selectivity panel; for IC50: read-out: RLB 5-HT1A IC50; for Ki: read-out: RLB 5-HT1A Ki
Chain of human 5-HT1A receptor (P08908 whole entry): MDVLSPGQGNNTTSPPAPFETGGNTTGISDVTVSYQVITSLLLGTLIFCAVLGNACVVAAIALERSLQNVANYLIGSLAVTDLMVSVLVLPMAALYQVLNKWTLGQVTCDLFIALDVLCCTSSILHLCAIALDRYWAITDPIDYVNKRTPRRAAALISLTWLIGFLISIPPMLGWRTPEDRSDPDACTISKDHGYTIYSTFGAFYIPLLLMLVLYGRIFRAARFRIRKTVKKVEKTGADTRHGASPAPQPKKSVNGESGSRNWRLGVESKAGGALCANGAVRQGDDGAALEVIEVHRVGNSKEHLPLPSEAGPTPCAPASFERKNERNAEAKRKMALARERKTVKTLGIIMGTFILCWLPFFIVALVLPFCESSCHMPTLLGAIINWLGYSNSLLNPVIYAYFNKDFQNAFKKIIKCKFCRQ
Protocol: as §1, §2
(§4) The new compounds have been tested by radioligand binding competition activity at the human 5-HT1A (FAST-0500B), 5-HT2A (FAST-0505B), 5-HT2Cedited (FAST-0507B), 5-HT6 (FAST-0509B), 5-HT7a (FAST-05111B) and D2(long) (FAST-0101B) receptors at seven (7) concentrations, in duplicate. […] Reference values thus obtained for the test were compared to historical values obtained from the same receptor and used to validate the experimental session. For replicate determinations, the maximum variability tolerated in the test was of +/−20% around the average of the replicates.
as §3

[3] = target: human 5-HT2A receptor (Homo sapiens (Human), UniProt P28223); experiment: Radioligand binding competition, 5-HT2A; conditions: selectivity panel; for IC50: read-out: RLB 5-HT2A IC50; for Ki: read-out: RLB 5-HT2A Ki
Chain of human 5-HT2A receptor (P28223 whole entry): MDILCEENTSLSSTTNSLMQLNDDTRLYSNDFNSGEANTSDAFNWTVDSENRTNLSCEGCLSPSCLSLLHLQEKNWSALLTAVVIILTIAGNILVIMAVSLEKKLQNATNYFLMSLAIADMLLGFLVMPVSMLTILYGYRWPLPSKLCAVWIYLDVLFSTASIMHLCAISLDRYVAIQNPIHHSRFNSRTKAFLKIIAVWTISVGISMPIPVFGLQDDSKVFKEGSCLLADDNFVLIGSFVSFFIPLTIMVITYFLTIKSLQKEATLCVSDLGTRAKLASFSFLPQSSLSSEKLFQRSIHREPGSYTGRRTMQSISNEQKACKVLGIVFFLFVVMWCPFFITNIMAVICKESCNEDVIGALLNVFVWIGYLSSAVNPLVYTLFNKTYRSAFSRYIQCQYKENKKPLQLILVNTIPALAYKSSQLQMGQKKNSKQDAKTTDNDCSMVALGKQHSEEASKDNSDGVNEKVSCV
Protocol: as §1, §2, §4, §3

[4] = target: human 5-HT2Cedited receptor (Homo sapiens, UniProt P28335); experiment: Radioligand binding competition, 5-HT2Cedited
Chain of human 5-HT2Cedited receptor (P28335 33-458 limits assumed): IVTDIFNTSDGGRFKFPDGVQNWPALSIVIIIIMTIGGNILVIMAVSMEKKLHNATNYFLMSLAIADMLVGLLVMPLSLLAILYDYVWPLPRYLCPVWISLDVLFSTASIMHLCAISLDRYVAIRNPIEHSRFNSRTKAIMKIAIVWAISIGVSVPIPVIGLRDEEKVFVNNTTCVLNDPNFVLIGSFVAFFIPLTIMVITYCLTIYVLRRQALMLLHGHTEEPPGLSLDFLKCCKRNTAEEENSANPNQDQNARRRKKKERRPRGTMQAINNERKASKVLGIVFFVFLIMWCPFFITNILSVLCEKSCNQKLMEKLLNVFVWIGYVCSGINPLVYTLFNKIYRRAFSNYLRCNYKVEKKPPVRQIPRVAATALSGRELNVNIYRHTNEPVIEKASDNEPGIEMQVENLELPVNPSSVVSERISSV
Protocol: as §1, §2, §4, §3

[5] = system: mice; experiment: Tail immersion test (50° C.); assay type: in vivo; conditions: administrated alone, i.p.
Protocol: (A) Experimental protocol summary used. (B) Mice were subcutaneously injected with two different doses of the 5-HT7 receptor agonist Serodolin, 1 mg/kg or 5 mg/kg and 10 min later their tail extremity was immersed in water heated to 50 degrees. […] The effect of injections (Serodolin or E55888) was evaluated at TO, 30 min and 60 min corresponding to 10, 40 and 70 min after compound injections. […] Their tail extremity was immersed in water heated to 50 degrees at TO (E) or 30 min later (F) corresponding to 10 and 40 min after agonist injections. […] Statistical analysis was done using Tukey's multiple comparison test.
Tail immersion test. Nociception was assessed with the tail immersion test, 10 min and 40 min after E55888 (5 mg/kg) or Serodolin (5 mg/kg) tail subcutaneous injections, in the water heated to 50° C. Vehicle (20% DMSO, 5% Tween 80 diluted in PBS solution) was used as a control group. These different groups were intraperitoneally injected (+) or not (−) with the 5-HT7R antagonist SB269960 (5 mg/kg) 10 min before the ligand injection. The tail withdrawal latency (s) was measured for each animal.

[6] = system: mice; experiment: Acetic acid-induced writhing test; assay type: in vivo; conditions: 3 mg/kg, s.c., positive control
Protocol: (§5) FIG. 9: Analgesic effect of Serodolin in the acetic acid-induced writhing test. In this test, nociception was induced by an intraperitoneally injection (ip) of 0.1 ml/10 g acid acetic solution (10 ml/kg) in peripheral origin. Serodolin at increasing dosage was administrated by oral (po), intravenous (iv) or subcutaneous (sc) route before acid acetic injection (upper panel). Positive control animals were pretreated morphine (3 mg/kg, sc) 10 minutes before acetic acid. Five minutes after i.p. injection of acetic acid the number of writhing was recorded for 10 minutes. Data mean±SEM of values obtained from a representative experiment (n=10 animals/group). ****p<0.0001 ***p<0.001 **p<0.01 *p<0.05 as compared with the control group (Vh).
as §5, with “16:” for “9:”, “MOA51” for “Serodolin”, “i.p.injection” for “i.p. injection”, “animals/group).” for “animals/group). ****p<0.0001 ***p<0.001”, “**p<0.01” for “**p<0.01 *p<0.05”
Writhing tests: Mice (25-35 g). Groups of mice (n=10) received by oral, subcutaneous or intravenous route Serodolin at different doses (0.1-10 mg/kg) one hour before intraperitoneally injection of 1% acetic acid in a volume of 10 ml/kg. Control group received vehicle (10 ml/kg, solution of 20% DMSO and 5% tween 80). The test was carried out 5 minutes later after acid acetic injection. The characteristic writhing responses have been observed individually and counted for 10 minutes.
Analgesic activity was first evaluated using the acetic acid abdominal constriction test (writhing test), a chemical model of visceral pain. We evaluated the dose-response effect of Serodolin following single oral, intravenous and subcutaneous administration of the compound one hour before injection of acetic acid.
Analgesic activity was evaluated using the acetic acid abdominal constriction test (writhing test), a chemical model of visceral pain. We evaluated the dose-response effect of MOA51 following single oral, intravenous and subcutaneous administration of the compound one hour before injection of acetic acid. MOA51 administered by the oral route induced statistically significant dose-dependent decreases in the number of writhings at and above the dose of 1 mg/kg. By the intravenous route, MOA51 induced dose-dependent decreases in the number of writhings at and above the dose of 0.1 mg/kg.

[7] = system: Sprague-Dawley male rats; experiment: Formalin induced inflammatory pain model; assay type: in vivo; conditions: single s.c., Serodolin 10 mg/kg, MOA51 1 mg/kg, morphine
Protocol: FIG. 18: Effect of a single administration of Serodolin (AIC01) or MOA51 in the formalin test in rats. Effect of a single subcutaneous administration of Serodolin (AIC01) or MOA51 in the formalin test in rats. In this test, Sprague-Dawley male rats received unilateral injection of a 2.5% formalin solution (50 μl) into the plantar aspect of the hindpaw on testing day (i.e. D0). Control group received Vehicle (20% DMSO/5% Tween 80/NaCl). Serodolin was subcutaneously (sc) administrated at 10 mg/kg and MOA51 at 1 mg/kg. Positive control animals were treated with morphine (3 mg/kg, sc). Paw licking time was measured. Results are expressed as mean±s.e.m. Percentage are expressed as decreased as compared to the vehicle-treated group and represented as figure (B). ***: p<0.001 as compared to the vehicle-treated group, Bonferroni's test after significant Two-way Repeated Measures ANOVA. NS: Non-significant.
Sprague-Dawley male rats (n=10 rats per group) received unilateral injection of a 2.5% formalin solution (50 μl) into the plantar aspect of the hindpaw on testing day (i.e. D0). Experience was separated into 4 groups of animals. Formalin animals+vehicle-treated group; […]—Formalin animals+Sponsor's Serodolin (10 mg/kg), s.c.—Formalin animals+Sponsor's MOA51 (1 mg/kg), s.c.—Formalin animals+internal validator-treated group (Morphine at 4 mg/Kg, s.c.). Single subcutaneous administration of the Vehicle and Sponsor's Compound 30 min (or other timing depending on Sponsor's design) before formalin injection on testing day (i.e. D0)/Subcutaneous administration of Morphine 30 min before formalin injection on testing day (i.e. D0). Hindpaw licking time recorded in consecutive 5 minutes periods from 0 to 5 minutes (early phase) and 17 to 27 minutes (late phase) after formalin injection.
We evaluated the effect of Serodolin as well as MOA51 in rats in the formalin test, an acute and tonic pain model based on the use of a chemical stimulus. Subcutaneous injection of formalin into the right hindpaw produces a biphasic painful response of increasing and decreasing intensity for about 30 minutes after the injection. […] Although not significant, Serodolin, MOA51 and morphine have an inhibitory effect (−40%, −35% and −57% respectively) during the early phase.

Structure (SMILES)	IC50 [1] [nM]	Ki [1] [nM]	also measured
O=c1[nH]c2ccccc2n1CCCCCN1CCN(c2ccccc2O)CC1 [JLB010]	7.99	5.61	–
O=c1[nH]c2ccccc2n1CN1CCN(c2ccccc2C(F)(F)F)CC1 [JLB011]	4.74	3.33	–
O=c1[nH]c2ccccc2n1CCOCCN1CCN(c2ccc(F)cc2)CC1 [JLB048]	19.1	13.4	–
O=c1[nH]c2ccccc2n1CCCCCN1CCN(c2ccccn2)CC1 [JLB012]	1.69	1.18	IC50 [2]: 41.3 nM; Ki [2]: 20.7 nM; IC50 [3]: 44.2 nM; Ki [3]: 7.3 nM; IC50 ([4]; read-out: RLB 5-HT2Cedited IC50; selectivity panel): 5.25 µM; Ki ([4]; read-out: RLB 5-HT2Cedited Ki; selectivity panel): 863 nM
O=c1[nH]c2ccccc2n1CCCCCN1CCN(c2ccncn2)CC1 [JLB022]	136	95.5	–
O=c1[nH]c2ccccc2n1CCCCCN1CC2(C1)CN(c1ccc(F)cc1)C2 [JLB088, 1-(5-(6-(4-fluorophenyl)-2,6-diazaspiro[3.3]heptan-2-yl)pentyl)-1H-benzo[d]imidazol-2(3H)-one]	174	122	–
O=c1[nH]ccn1CCCCCN1CCN(c2ccc(F)cc2)CC1 [JLB102, 1-(5-(4-(4-fluorophenyl)piperazin-1-yl)pentyl)-1H-imidazol-2(3H)-one]	17	11.9	–
O=c1[nH]c2ccccc2n1CCCCCN1CCCN(c2ccccn2)CC1 [JLB118, 1-(5-(4-(pyridin-2-yl)-1,4-diazepan-1-yl)pentyl)-1H-benzo[d]imidazol-2(3H)-one]	69.7	48.9	–
O=c1[nH]c2ccccc2n1CCCCCN1CCN(c2ccc(F)cc2)CC1 [JLB015]	4.39	3.09	–
Cc1ccc(N2CC3(CN(CCCCCn4c(=O)[nH]c5ccccc54)C3)C2)cc1 [JLB137, 1-(5-(6-(p-tolyl)-2,6-diazaspiro[3.3]heptan-2-yl)pentyl)-1H-benzo[d]imidazol-2(3H)-one]	687	482	–
O=c1[nH]c2ccccc2n1CCCCCN1C[C@@H]2CN(c3ccc(F)cc3)C[C@@H]2C1 [JLB061]	5.97	4.19	–
O=c1[nH]c2ccccc2n1CCCCCN1CCN(c2ncncn2)CC1 [JLB023]	370	260	–
CC1CCN(CC[C@H]2CCCN2S(=O)(=O)c2cccc(O)c2)CC1 [SB269970, reference compound]	–	–	acute thermal nociception, antagonist administrated alone [5]: did not exert any significant effect on acute thermal nociception
Cc1ccc(N2CCCN(CCCCCn3c(=O)[nH]c4ccccc43)CC2)cc1 [JLB119, 1-(5-(4-(p-tolyl)-1,4-diazepan-1-yl)pentyl)-1H-benzo[d]imidazol-2(3H)-one]	24.2	17	–
O=c1[nH]c2ccccc2n1CCCCCN1CCN(c2ccccc2F)CC1 [JLB014]	3.29	2.31	–
O=c1[nH]c2ccccc2n1CCCCCN1CCN(c2ccc(O)cc2)CC1 [MOA43]	1.95	1.37	–
O=c1[nH]c2ccccc2n1CCCCCN1CC2(C1)CN(c1ccccn1)C2 [JLB138, 1-(5-(6-(pyridin-2-yl)-2,6-diazaspiro[3.3]heptan-2-yl)pentyl)-1H-benzo[d]imidazol-2(3H)-one]	5070	3560	–
CC(C)(CCN1CCN(c2ccc(F)cc2)CC1)CCn1c(=O)[nH]c2ccccc21 [JLB094]	2.7	1.9	IC50 [2]: 167 nM; Ki [2]: 83.6 nM; IC50 [3]: 6.23 nM; Ki [3]: 1.02 nM; IC50 ([4]; selectivity panel; read-out: RLB 5-HT2Cedited IC50): 1.1 µM; Ki ([4]; selectivity panel; read-out: RLB 5-HT2Cedited Ki): 181 nM
O=c1[nH]c2ccccc2n1CCCCCN1CCN(c2ccncc2)CC1 [JLB020]	260	182	–
O=c1[nH]c2ccccc2n1CCCCCN1CCN(c2ncccn2)CC1 [JLB013]	9.68	6.8	–
O=c1[nH]c2ccccc2n1CCCCCN1CCN(c2ccc(C(F)(F)F)cc2)CC1 [JLB017]	7.19	5.05	–
CN1CC[C@]23c4c5ccc(O)c4O[C@H]2[C@@H](O)C=C[C@H]3[C@H]1C5 [morphine, reference compound]	–	–	inhibition of the writhing assay response [6]: full inhibition; inhibitory effect on paw licking, early phase ([7]; 0 to 5 minutes, not significant): −57%; inhibition of licking, late phase ([7]; 17 to 27 minutes): −64%
